Experimental data reported in patent publication US8623865B2, “Acylpiperazinones and their use as pharmaceuticals” (Fab Parma S.A.S, priority 2009, dated 2014).
≈ marks a conversion by molar mass, not a printed value. Where “and” joins values, the source holds several entries; their conditions need not be identical. Equal entries are not always repeated. Where two headings read alike, the source gives them in different places. Values belong to the compound of their own block, whether it stands above or below them.

Key:
[1] = system: S. aureus CIP 54.146 (MSSA); assay: MIC, broth microdilution, S. aureus CIP 54.146 (with and without 80% human serum); type: cell-based; details: Staphylococcus aureus
Protocol: The compounds of the invention are useful antibacterial agents having a selective spectrum of activity in vitro against bacterial strains relying on FabI and related targets. […] The activity is presented as Minimum Inhibitory Concentration (MIC) expressed in μg/ml and was determined using broth microdilution or Agar dilution methods.
(§1) Antibacterial activity was determined on MSSA CIP 54.146 provided by the Centre de Ressources Biologiques de l'Institut Pasteur. Antibacterial activity was also determined on MRSA (IHMA #510059) and MSSA (IHMA #555189).
This protocol is compliant with Clinical Laboratory Standards Institute (CLSI) methodology as described in M7-A7 document of the CLSI. The compound to be tested is diluted according to a geometric series of reason 2 in pure DMSO. Dilutions are transferred in sterile polystyrene microplates, followed by mid-log phase bacteria in cation-adjusted Muller-Hinton broth (ca-MHB, Fluka, Reference 90922) with a final inoculum of 5×10^5 cfu/ml. Microplates are incubated overnight at 35° C. MIC is defined as the lowest concentration of antimicrobial agent that completely prevents visible bacterial growth. All manipulations, but compound handling (in pure DMSO), are performed under sterile conditions. The final concentration of DMSO in the plates is 2%.
In order to evaluate the serum binding of test compounds, MICs were also measured in ca-MHB supplemented with 80% human serum (HS, Sigma, Reference H4522).

[2] = system: methicillin susceptible Staphylococcus aureus strain ATCC 29213; assay: In vivo protection assay, S. aureus infection of neutropenic mice (survival); design: species or system Swiss mice; details: 48 h
[3] = molecular target: recombinant S. aureus FabI enzyme (Staphylococcus aureus (strain MRSA252), UniProt Q6GI75); assay: In vitro inhibition of recombinant S. aureus FabI enzyme (fluorescence based assay); type: biochemical; details: 60 min pre-incubation
Protocol: Compound inhibitory activity of FabI enzyme is measured in vitro by the IC50 determination using a fluorescence based assay.
The protein FabI from S. aureus is prepared and purified using standard methods for recombinant protein expression after cloning of the gene in a prokaryotic expression vector.
The biochemical activity of the FabI enzyme is assessed using the following method.
The assay buffer “AB” contained 50 mM ADA (N-(2-acetamido)iminodiacetic acid monosodium salt) pH 6.5, 1 mM dithiothreitol, 0.006% Triton-X100 and 50 mM NaCl. The following components are added in a white polystyrene Costar plate (Ref 3912) up to a final volume of 55.5 μL: 1.5 μL DMSO or inhibitor dissolved in DMSO and 54 μL of a FabI/NADPH/NADP+ mixture in AB. After 60 min of pre-incubation at room temperature, the reaction is started by addition of 5 μL of trans-2-octenoyl N-acetylcysteamine thioester (t-o-NAC) to a final volume of 60.5 μL. This reaction mixture is then composed of 2 nM FabI, 40 μM NADPH (Sigma, N7505), 10 μM NADP+ (Sigma, N5755), 100 μM t-O-NAC and compound at defined concentration. Fluorescence intensity of NADPH (λex=360 nm, λem=520 nm) is measured immediately after t-O-NAC addition (T0), and approximately 50 min later (T50) by a Fluostar Optima (BMG) so as to achieve ±30% of NADPH conversion. Enzyme activity is calculated by first subtracting TO signal to T50 and then subtracting background signal (FabI=0). Percentages of inhibition are calculated against untreated samples (Inhibitor=0) and IC50 are fitted to a classical Langmuir equilibrium model using XLFIT (IDBS).

MRSA (IHMA #510059) = assay: MIC, broth microdilution (susceptibility method), MRSA; type: cell-based; details: Staphylococcus aureus, read-out: MIC MRSA (IHMA #510059)
Protocol: as §1
(§2) Minimum inhibitory concentrations (MICs) were determined by broth microdilution according to CLSI guidelines (CLSI, M100-20^1, M7-A8^2, M27-A3^3). The compounds were tested in the range from […]. Colonies were taken directly from a second-pass culture plate and prepared to a suspension equivalent to the 0.5 McFarland standard using normal saline. […] The panels were incubated at 35° C. for 16 to 20 hours before reading the MIC endpoints. The compounds of Examples 4 to 8 were dissolved in DMSO to make the initial solutions of 5120 μg/ml. These solutions were diluted 1:10 in sterile water to a stock solution of 512 μg/ml. The stock solutions were further diluted into the appropriate broth medium for the sequential dilutions used in the broth microdilution panels. S. pneumoniae was tested in Mueller Hinton (MH) broth with 3% lysed horse blood and C. albicans was tested in RPMI-1640 medium. All other organisms were tested in MH broth.

MSSA (IHMA #555189) = assay: MIC, broth microdilution (susceptibility method), MSSA; type: cell-based; details: Staphylococcus aureus, read-out: MIC MSSA (IHMA #555189)
Protocol: as §1, §2

HSA = HSA (Homo sapiens (Human), UniProt P02768); assay: HSA binding analysis using a chiral HSA column; type: in vitro ADME
Protocol: The test system used in this analysis was an HSA chiral column.
A 10 mM stock solution of Example 7 (molecular weight of 475.49 and HPLC purity 86.3%) was prepared by dissolving 1.8 mg of a compound of Example 7 in 0.327 ml of DMSO. The compound of Example 7 at a concentration of 100 μM was prepared by diluting the stock solution at 10 mM in DMSO with Potassium phosphate buffer pH 7.0.
The relationship between the retention time (Tr) and percentage of protein binding (PB %) depended on the dead time (T0) and the capacity factor (k′): PB %=[k′/(k′+1)]*100 • where k′=(Tr−T0)/T0 Results

[4] = system: S. pneumoniae (ATCC 49619); assay: MIC, broth microdilution (susceptibility method), S. pneumoniae; type: cell-based; details: Streptococcus pneumoniae, ATCC49619, MH broth with 3% lysed horse blood
Protocol: as §2

E. faecalis (ATCC 29212) = assay: MIC, broth microdilution (susceptibility method), E. faecalis; type: cell-based; details: Enterococcus faecalis, ATCC29212, MH broth
Protocol: as §2

E. coli (ATCC 25922) = assay: MIC, broth microdilution (susceptibility method), E. coli; type: cell-based; details: Escherichia coli, ATCC25922, MH broth
Protocol: as §2

C. albicans (ATCC 90028) = assay: MIC, broth microdilution (susceptibility method), C. albicans; type: cell-based; details: Candida albicans, ATCC90028, RPMI-1640 medium
Protocol: as §2

[5] = rats, intravenous; cited from earlier work
[6] = ca-MHB supplemented with 80% human serum, read-out: MIC S. aureus CIP 54.146 in the presence of 80% human serum
[7] = ca-MHB, read-out: MIC S. aureus CIP 54.146

Sequence of HSA (P02768 25-609): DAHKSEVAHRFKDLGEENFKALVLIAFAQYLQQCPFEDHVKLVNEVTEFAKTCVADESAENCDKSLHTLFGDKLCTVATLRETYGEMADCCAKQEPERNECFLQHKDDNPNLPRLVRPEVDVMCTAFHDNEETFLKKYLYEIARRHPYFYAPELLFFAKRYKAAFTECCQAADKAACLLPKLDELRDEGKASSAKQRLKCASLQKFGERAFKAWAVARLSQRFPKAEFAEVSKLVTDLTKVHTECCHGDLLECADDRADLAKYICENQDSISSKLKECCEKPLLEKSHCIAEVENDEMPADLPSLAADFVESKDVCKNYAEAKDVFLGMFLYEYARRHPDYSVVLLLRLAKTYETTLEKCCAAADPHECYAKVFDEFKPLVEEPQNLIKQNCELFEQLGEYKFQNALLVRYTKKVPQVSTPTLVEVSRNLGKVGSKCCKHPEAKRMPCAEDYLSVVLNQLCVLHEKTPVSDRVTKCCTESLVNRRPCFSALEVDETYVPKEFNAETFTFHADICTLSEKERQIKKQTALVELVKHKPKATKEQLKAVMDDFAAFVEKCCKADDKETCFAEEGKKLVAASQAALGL

SMILES: CCc1cc(O)c(Oc2ccc(C(=O)N3CCNC(=O)C3)cc2F)cc1F [Example 1, 4-[4-(4-Ethyl-5-fluoro-2-hydroxyphenoxy)-3-fluorobenzoyl]piperazin-2-one]
MIC [1, 6]: 0.5 µg/mL
MIC [1, 7]: 0.25 µg/mL (≈ 0.664 µM)
Protection of infected mice (survival rate) ([2]; single oral administration, 100 and 200 mg/kg): able to protect mice against bacterial dissemination
Protection of infected mice (survival rate) ([2]; single subcutaneous administration, 6.25 and 12.5 mg/kg): able to protect mice against bacterial dissemination
IC50 [3]: 16 nM

SMILES: CCc1ccc(Oc2ccc(C(=O)N3CCNC(=O)C3)cc2F)c(O)c1 [Example 2, 4-[4-(4-Ethyl-2-hydroxyphenoxy)-3-fluorobenzoyl]piperazin-2-one]
MIC [1, 6]: 1 µg/mL
MIC [1, 7]: 1 µg/mL (≈ 2.79 µM)
IC50 [3]: 29 nM

SMILES: CCOC(=O)Oc1cc(CC)c(F)cc1Oc1ccc(C(=O)N2CCNC(=O)C2)cc1F [Example 3, 4-Fluoro-2-{2-fluoro-4-[(3-oxopiperazin-1-yl)carbonyl]phenoxy}-5-ethylphenyl ethyl carbonate]
IC50 [3]: 5000 nM

MIC (MRSA (IHMA #510059); broth microdilution, MH broth): 32 µg/mL (≈ 82 µM)
MIC (MSSA (IHMA #555189); broth microdilution, MH broth): 4 µg/mL (≈ 10.2 µM)
SMILES: CCc1cc(O)c(Oc2ccc(C(=O)N3CC(=O)NC(=O)C3)cc2F)cc1F [Example 4, 4-[4-(4-Ethyl-5-fluoro-2-hydroxyphenoxy)-3-fluorobenzoyl]piperazine-2,6-dione]

MIC (MRSA (IHMA #510059); broth microdilution, MH broth): 1 µg/mL (≈ 2.56 µM)
MIC (MSSA (IHMA #555189); broth microdilution, MH broth): 0.015 µg/mL (≈ 0.0384 µM)
SMILES: CCc1cc(O)c(Oc2ccc(C(=O)N3CCN(C)C(=O)C3)cc2F)cc1F [Example 5, 4-[4-(4-Ethyl-5-fluoro-2-hydroxyphenoxy)-3-fluorobenzoyl]-1-methylpiperazin-2-one]

MIC (MRSA (IHMA #510059); broth microdilution, MH broth): 4 µg/mL (≈ 9.23 µM)
MIC (MSSA (IHMA #555189); broth microdilution, MH broth): 0.25 µg/mL (≈ 0.577 µM)
SMILES: CCc1cc(O)c(Oc2ccc(C(=O)N3CCN(CC(N)=O)C(=O)C3)cc2F)cc1F [Example 6, 2-[4-(4-(4-Ethyl-5-fluoro-2-hydroxyphenoxy)-3-fluorobenzoyl]-2-oxopiperazin-1-yl)acetamide]

SMILES: CCc1cc(O)c(Oc2ccc(C(=O)N3CCN(CN4CCOCC4)C(=O)C3)cc2F)cc1F [Example 7, 4-[4-(4-Ethyl-5-fluoro-2-hydroxyphenoxy)-3-fluorobenzoyl]-1-(morpholinomethyl)piperazin-2-one]
Binding to HSA (in words) (HSA): moderate binding
HSA Binding (%) (HSA; 37° C., pH 7.0, 100 μM): 74.9%
C (average) (HSA; average of 3 tests): 0.75
k′ (average) (HSA; average of 3 tests): 2.987
k′ (capacity factor) (HSA; single test): 2.987 and 2.981 and 2.993
MIC (MRSA (IHMA #510059)): 0.06 µg/mL (≈ 0.126 µM)
MIC [4]: > 128 µg/mL
MIC (MSSA (IHMA #555189)): 0.06 µg/mL (≈ 0.126 µM)
MIC (E. faecalis (ATCC 29212)): 64 µg/mL (≈ 135 µM)
MIC (E. coli (ATCC 25922)): 4 µg/mL (≈ 8.41 µM)
MIC (C. albicans (ATCC 90028)): > 128 µg/mL

MIC (MRSA (IHMA #510059); broth microdilution, MH broth): 1 µg/mL (≈ 2.56 µM)
MIC (MSSA (IHMA #555189); broth microdilution, MH broth): 0.06 µg/mL (≈ 0.154 µM)
SMILES: CCc1cc(O)c(Oc2ccc(C(=O)N3CCNC(=O)C3C)cc2F)cc1F (centres unmarked) [Example 8, 4-[4-(4-Ethyl-5-fluoro-2-hydroxyphenoxy)-3-fluorobenzoyl]-3-methyl piperazin-2-one]

SMILES: Oc1cc(Cl)ccc1Oc1ccc(Cl)cc1Cl [Triclosan]
LD50 [5]: 29 mg/kg
